pEC50, pIC50: −log10 of the molar value. Where two headings read alike, the source gives them in different places. Where no end group is shown, it is not given here. [ ]: non-standard residue; d: D form. pT = C[C@@H](OP(=O)(O)O)[C@H](N)C(=O)O; pS = N[C@@H](COP(=O)(O)O)C(=O)O
Key:
[1] = tested on: HCoV-229E; experiment: High-content screen of GSK3β-focused library in HCoV-229E infected Huh-7.5.1 cells (intracellular dsRNA); type: cell-based, human coronavirus 229E (HCoV-229E); details: Human coronavirus 229E, single dose of 10 μM, Z′ 0.7
[2] = tested on: Huh-7.5.1 cells; details: single dose of 10 μM
Procedure: High content screening methodology and parameters. Monitoring of the total number of cells (based on nuclei staining) and number of virus infected cells (based on dsRNA and Nucleocapsid staining) was performed using the CellInsight CX7™ High Content Screening platform (Thermo Fisher™), as previously described (33042061). Shortly, nuclei are identified and counted using the 350′461 nm wavelength (Hoechst 33342™); cell debris and other particles are deducted based on a size filter tool. A Region of Interest (ROI, or “circle”) is then drawn around each host cell and validated against the bright field image to correspond with host cell membranes. The ROI encompasses the “spots”, where dsRNA (485/521 nm wavelength) and SARS-CoV-2 nucleocapsid (533/588 nm wavelength) are localized. Finally, the software (HCS Studio Cell Analysis Software™, version 4.0) identifies, counts and measures the pixel area and intensity of the spots within each circle. The fluorescent spot area measured within each cell (circle) is then added and quantified for each well. The total circle spot intensity of each well corresponds to the viral load, and is normalized to non-infected cells, and to cells infected with no compound. Nuclei stain (Hoechst 33342™) was used to quantify cell loss (due to cytotoxicity or loss of adherence), and to normalize the changes in viral load resulting from a decrease in cell numbers.

[3] = tested on: SARS-CoV-2; experiment: High-content screen of GSK3β-focused library in SARS-CoV-2 infected Huh-7.5.1 cells (dsRNA or nucleocapsid); type: cell-based; details: for inhibition at 10 µM: Severe acute respiratory syndrome coronavirus 2, single dose of 10 μM, Huh-7.5.1 cells; for Activity (SARS-CoV-2): see TABLE A
[4] = tested on: SARS-CoV-2; experiment: Dose-response of SARS-CoV-2 viral load (intracellular N protein) in Huh-7.5.1 cells; type: cell-based; details: Severe acute respiratory syndrome coronavirus 2, Huh-7.5.1, Huh-7.5.1 cells, intracellular N protein; read-out: ED50 (SARS-CoV-2)
[5] = tested on: HCoV-229E; experiment: Dose-response of HCoV-229E viral load (dsRNA) in Huh-7.5.1 cells; type: cell-based, human coronavirus 229E (HCoV-229E); details: Human coronavirus 229E, read-out: ED50 (HCoV-229E)
[6] = tested on: SARS-CoV-2; set-up: effect on N protein phosphorylation and SARS-CoV-2 replication: dose or concentration left out as unconfirmed; details: cited from earlier work
[7] = target: cAMP-dependent protein kinase catalytic subunit-alpha (PKACa) (Homo sapiens, UniProt P17612); experiment: In vitro phosphorylation of nucleocapsid peptides, ADP-Glo, PKACa; type: biochemical; details: peptide ~250 μM, 250 μM ATP, 30 min at 30° C.; duplicate measurements
[8] = target: T1, glycogen synthase kinase-3-beta (Homo sapiens, UniProt P49841); experiment: In vitro phosphorylation of nucleocapsid peptides, ADP-Glo, GSK3b; type: biochemical; details: for Relative Phosphorylation to No Kinase Control, GSK3b: Mean ± S.Dev. (n = 3), no kinase control = 100; for Relative Phosphorylation to Autophosphorylation Control (set at 100), GSK3b: peptide ~250 μM, 250 μM ATP, 30 min at 30° C., duplicate measurements
T1 construct: GST; purchased SignalChem Go9-10G

[9] = target: T2, protein kinase C-alpha (PKC α) (Homo sapiens, UniProt P17252); experiment: In vitro phosphorylation of nucleocapsid peptides, ADP-Glo, PKCa; type: biochemical; details: for Relative Phosphorylation to No Kinase Control, PKCa: Mean ± S.Dev. (n = 3), no kinase control = 100; for Relative Phosphorylation to Autophosphorylation Control (set at 100), PKCa: peptide ~250 μM, 250 μM ATP, 30 min at 30° C., duplicate measurements
T2 construct: GST; purchased SignalChem P61-18G

[10] = tested on: PKCa + GSK3b; experiment: In vitro phosphorylation of nucleocapsid peptides, ADP-Glo, PKCa + GSK3b combined; type: biochemical, human; details: Mean ± S.Dev. (n = 3); no kinase control = 100
[11] = target: T3, casein kinase 1-delta (Homo sapiens, UniProt P48730); experiment: In vitro phosphorylation of nucleocapsid peptides, ADP-Glo, CK1d; type: biochemical; details: peptide ~250 μM, 250 μM ATP, 30 min at 30° C.; duplicate measurements
T3 construct: GST; purchased SignalChem C65-10G

[12] = target: cyclin-dependent kinase 2/cyclin A2 (CDK2/A2) (Homo sapiens, UniProt P24941); experiment: In vitro phosphorylation of nucleocapsid peptides, ADP-Glo, CDK2/cyclin A2; type: biochemical; details: peptide ~250 μM, 250 μM ATP, 30 min at 30° C.; duplicate measurements
[13] = target: T4, extracellularly-regulated kinase-1 (ERK1) (Homo sapiens, UniProt P27361); experiment: In vitro phosphorylation of nucleocapsid peptides, ADP-Glo, ERK1; type: biochemical; details: peptide ~250 μM, 250 μM ATP, 30 min at 30° C.; duplicate measurements
T4 construct: GST; purchased SignalChem M29-10G

[14] = target: T5, casein kinase 1-gamma-1 (CK1γ1) (Homo sapiens, UniProt Q9HCP0); experiment: In vitro phosphorylation of nucleocapsid peptides, ADP-Glo, CK1g1; type: biochemical; details: peptide ~250 μM, 250 μM ATP, 30 min at 30° C.; duplicate measurements
T5 construct: GST; purchased SignalChem C68-11G

[15] = target: T6, casein kinase 2-alpha-1 (CK2a1) (Homo sapiens, UniProt P68400); experiment: In vitro phosphorylation of nucleocapsid peptides, ADP-Glo, CK2a1; type: biochemical; details: peptide ~250 μM, 250 μM ATP, 30 min at 30° C.; duplicate measurements
T6 construct: GST; purchased SignalChem C70-10G

[16] = target: T7, casein kinase 1-alpha-1 (CK1a1) (Homo sapiens, UniProt P48729); experiment: In vitro phosphorylation of nucleocapsid peptides, ADP-Glo, CK1a1; type: biochemical; details: peptide ~250 μM, 250 μM ATP, 30 min at 30° C.; duplicate measurements
T7 construct: GST; purchased SignalChem C64-10G

[17] = Z′ 0.3, read-out: SARS-CoV-2 inhibition (% dsRNA)
[18] = average of screens 1 and 2, read-out: Average SARS-CoV-2 Nucleocapsid inhibition
[19] = screen 1, Z′ 0.7, read-out: SARS-CoV-2 inhibition (% Nucleocapsid) 1
[20] = screen 2, Z′ 0.5, read-out: SARS-CoV-2 inhibition (% Nucleocapsid) 2

T6 sequence (P68400 whole entry): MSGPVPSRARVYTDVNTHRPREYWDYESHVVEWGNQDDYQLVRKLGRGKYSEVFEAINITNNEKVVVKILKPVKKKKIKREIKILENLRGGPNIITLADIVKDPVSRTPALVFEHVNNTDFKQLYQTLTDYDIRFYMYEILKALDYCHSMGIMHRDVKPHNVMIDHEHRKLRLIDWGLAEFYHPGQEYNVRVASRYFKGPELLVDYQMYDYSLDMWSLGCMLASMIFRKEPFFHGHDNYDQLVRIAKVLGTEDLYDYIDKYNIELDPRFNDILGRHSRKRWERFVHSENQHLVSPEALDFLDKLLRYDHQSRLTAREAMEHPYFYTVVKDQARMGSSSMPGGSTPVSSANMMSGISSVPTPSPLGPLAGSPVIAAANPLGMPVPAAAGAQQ
T1 sequence (P49841 whole entry): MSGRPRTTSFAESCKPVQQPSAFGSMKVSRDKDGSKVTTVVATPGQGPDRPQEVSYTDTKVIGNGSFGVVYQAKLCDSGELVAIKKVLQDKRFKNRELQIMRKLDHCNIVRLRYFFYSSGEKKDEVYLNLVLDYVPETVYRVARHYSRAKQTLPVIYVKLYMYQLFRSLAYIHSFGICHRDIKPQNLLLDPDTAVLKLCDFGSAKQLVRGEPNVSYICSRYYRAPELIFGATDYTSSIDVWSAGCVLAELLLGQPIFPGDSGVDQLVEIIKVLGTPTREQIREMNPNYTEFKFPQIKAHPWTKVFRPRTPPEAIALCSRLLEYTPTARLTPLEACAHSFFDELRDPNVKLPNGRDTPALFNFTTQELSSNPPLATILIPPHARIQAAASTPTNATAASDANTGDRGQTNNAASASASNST
T4 sequence (P27361 whole entry): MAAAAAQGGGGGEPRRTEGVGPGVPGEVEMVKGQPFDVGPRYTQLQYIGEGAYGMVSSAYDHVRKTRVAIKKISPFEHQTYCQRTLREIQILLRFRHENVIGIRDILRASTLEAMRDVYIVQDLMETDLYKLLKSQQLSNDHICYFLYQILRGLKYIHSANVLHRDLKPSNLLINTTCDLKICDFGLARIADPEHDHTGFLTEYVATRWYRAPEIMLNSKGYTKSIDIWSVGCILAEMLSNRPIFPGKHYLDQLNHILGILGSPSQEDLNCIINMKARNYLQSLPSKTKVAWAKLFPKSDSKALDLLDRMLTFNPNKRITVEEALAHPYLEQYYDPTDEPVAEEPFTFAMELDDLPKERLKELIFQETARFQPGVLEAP
T3 sequence (P48730 whole entry): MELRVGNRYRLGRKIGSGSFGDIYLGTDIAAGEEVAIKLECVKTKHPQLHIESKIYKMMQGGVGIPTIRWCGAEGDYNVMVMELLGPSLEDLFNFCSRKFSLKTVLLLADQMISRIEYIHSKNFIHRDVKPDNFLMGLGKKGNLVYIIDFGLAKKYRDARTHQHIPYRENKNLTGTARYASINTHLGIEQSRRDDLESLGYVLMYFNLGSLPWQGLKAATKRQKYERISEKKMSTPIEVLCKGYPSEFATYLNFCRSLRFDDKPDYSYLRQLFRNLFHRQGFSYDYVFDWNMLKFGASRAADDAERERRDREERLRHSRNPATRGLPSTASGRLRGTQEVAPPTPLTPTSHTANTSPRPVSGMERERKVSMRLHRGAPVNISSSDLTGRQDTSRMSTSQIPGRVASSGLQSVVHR
T7 sequence (P48729 whole entry): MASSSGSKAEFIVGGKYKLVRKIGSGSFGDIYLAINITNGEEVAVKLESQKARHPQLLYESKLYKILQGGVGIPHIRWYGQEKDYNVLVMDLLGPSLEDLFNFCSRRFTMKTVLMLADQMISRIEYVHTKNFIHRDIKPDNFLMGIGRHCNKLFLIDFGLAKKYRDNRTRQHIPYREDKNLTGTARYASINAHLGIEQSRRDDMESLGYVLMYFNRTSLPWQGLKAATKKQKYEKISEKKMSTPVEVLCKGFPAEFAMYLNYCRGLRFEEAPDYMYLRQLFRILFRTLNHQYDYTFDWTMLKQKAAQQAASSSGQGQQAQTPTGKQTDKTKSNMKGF
T5 sequence (Q9HCP0 whole entry): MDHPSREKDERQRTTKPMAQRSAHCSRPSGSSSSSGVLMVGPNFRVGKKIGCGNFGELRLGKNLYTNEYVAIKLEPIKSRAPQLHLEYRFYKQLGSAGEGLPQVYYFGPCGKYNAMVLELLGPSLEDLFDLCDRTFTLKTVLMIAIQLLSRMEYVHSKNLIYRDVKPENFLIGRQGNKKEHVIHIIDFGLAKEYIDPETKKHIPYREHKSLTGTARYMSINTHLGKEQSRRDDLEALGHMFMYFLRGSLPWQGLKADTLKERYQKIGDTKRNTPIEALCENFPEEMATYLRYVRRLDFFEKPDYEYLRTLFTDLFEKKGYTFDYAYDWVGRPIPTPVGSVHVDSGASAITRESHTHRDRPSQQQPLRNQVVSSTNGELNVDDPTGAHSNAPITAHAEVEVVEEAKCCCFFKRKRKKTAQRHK

| Molecule | inhibition at 10 µM [1] [%] | Average cell loss (%) [2] [%] | inhibition at 10 µM [3, 17] [%] | inhibition at 10 µM [3, 18] [%] | inhibition at 10 µM [3, 19] [%] | inhibition at 10 µM [3, 20] [%] | Relative Phosphorylation to Autophosphorylation Control (set at 100), PKACa [7] | Relative Phosphorylation to No Kinase Control, GSK3b [8] | Relative Phosphorylation to Autophosphorylation Control (set at 100), GSK3b [8] | Relative Phosphorylation to No Kinase Control, PKCa [9] | Relative Phosphorylation to Autophosphorylation Control (set at 100), PKCa [9] | also measured |
| --- | --- | --- | --- | --- | --- | --- | --- | --- | --- | --- | --- | --- |
| COc1ccc(-n2cnc3ccc(-c4nnc(SCc5cccc(C#N)c5)o4)cc32)cc1 [Compound P-0780332] | 0 | 9.2 | 0.6 | 0 | 0 | 0 | – | – | – | – | – | Activity (SARS-CoV-2) [3]: inactive (see TABLE A) |
| CSc1ccc(-n2cnc3ccc(-c4nnc(CCc5cccc(C(F)(F)F)c5)o4)cc32)cc1 [Compound P-3817632] | 87.7 | 12.7 | 100 | 71.4 | 70.8 | 72 | – | – | – | – | – | Activity (SARS-CoV-2) [3]: active (see TABLE A) |
| O=C(NCc1ccccn1)Nc1cc(N2CC(CCc3ccccc3)CC2=O)ccn1 (stereo not shown) [Compound P-4423632] | 43.2 | 12.0 | 100 | 95.2 | 98 | 92.4 | – | – | – | – | – | Activity (SARS-CoV-2) [3]: active (see TABLE A) |
| Cc1nnc(-c2ccc3occ(-c4ccc([S+](C)[O-])c(OC(F)(F)F)c4)c3c2)o1 (stereo not shown) [Compound P-5782442] | 60 | 16.1 | 100 | 93.8 | 93.3 | 94.4 | – | – | – | – | – | Activity (SARS-CoV-2) [3]: active (see TABLE A) |
| C[S+]([O-])c1ccc(-c2coc3ccc(-c4nnc(SCc5cccc(F)c5)o4)cc23)cc1 (stereo not shown) [Compound P-7657632] | 100 | 25.4 | 100 | 93.1 | 100 | 86.2 | – | – | – | – | – | pEC50 [4]: ~5.52; pEC50 [5]: ~5.52 |
| CSc1ccc(-c2coc3ccc(-c4nnc(N)o4)cc23)cc1Cl [Compound P-9071942] | 94.2 | 29.9 | 100 | 94.5 | 100 | 89.1 | – | – | – | – | – | pEC50 [4]: ~5.52; pEC50 [5]: ~5.52 |
| Cn1cc(C2=C(c3cn(C4CCN(Cc5ccccn5)CC4)c4ccccc34)C(=O)NC2=O)c2ccccc21 [Enzastaurin] | – | – | – | – | – | – | – | – | – | – | – | effect on infection ([6]; A549-ACE2 human lung cancer-derived cell line and Vero E6 cells, reference [7]): reduced infection; effect on N protein phosphorylation and SARS-CoV-2 replication ([6]; reference [7]): blocked N protein phosphorylation and SARS-CoV-2 replication |
| [Cl-].[Li+] [Lithium chloride] | – | – | – | – | – | – | – | – | – | – | – | pIC50 ([6]; from reference [7], read-out: IC50 to inhibit N protein phosphorylation and SARS-CoV-2 replication in cells): 2.00 |
| RGGSQASSRSS(pS)RS (RGGSQASSRSS[pS]RS) [SCV2-N [177-190]-pS188, synthetic peptide modeled after SARS-CoV-2 nucleocapsid protein phosphorylation sites, pre-phosphorylated at S188] | – | – | – | – | – | – | 128 | 24,585 ± 645 | 1209 | 3861 ± 71 | 389 | – |
| RGGSQASSRSSSRS [SCV2-N [177-190], synthetic peptide modeled after SARS-CoV-2 nucleocapsid protein phosphorylation sites] | – | – | – | – | – | – | 162 | 2161 ± 63 | 107 | 13,714 ± 502 | 1320 | Relative Phosphorylation to No Kinase Control, PKCa + GSK3b [10]: 3572 ± 22 |
| RNSTPGSSRGT(pS)PAR (RNSTPGSSRGT[pS]PAR) [SCV2-N [195-209]-pS206, synthetic peptide modeled after SARS-CoV-2 nucleocapsid protein phosphorylation sites, pre-phosphorylated at S206] | – | – | – | – | – | – | 205 | 24,082 ± 381 | 1068 | 1531 ± 47 | – | Relative Phosphorylation to Autophosphorylation Control (set at 100), CK1d [11]: 105; Relative Phosphorylation to Autophosphorylation Control (set at 100), CDK2 + Cyclin A2 [12]: 100; Relative Phosphorylation to Autophosphorylation Control (set at 100), ERK1 [13]: 100; Relative Phosphorylation to Autophosphorylation Control (set at 100), CK1g1 [14]: 105 |
| SQASSRSSSR(pS)RNS (SQASSRSSSR[pS]RNS) [SCV2-N [180-193]-pS190, synthetic peptide modeled after SARS-CoV-2 nucleocapsid protein phosphorylation sites, pre-phosphorylated at S190] | – | – | – | – | – | – | 312 | 2957 ± 3 | 111 | 4161 ± 66 | 418 | Relative Phosphorylation to Autophosphorylation Control (set at 100), CK2a1 [15]: 100 |
| SQASSRSSSRSRNS [SCV2-N [180-193], synthetic peptide modeled after SARS-CoV-2 nucleocapsid protein phosphorylation sites] | – | – | – | – | – | – | 123 | 2407 ± 23 | 102 | 16,366 ± 261 | 1278 | Relative Phosphorylation to No Kinase Control, PKCa + GSK3b [10]: 3836 ± 41; Relative Phosphorylation to Autophosphorylation Control (set at 100), CK2a1 [15]: 101 |
| SSRSRNSSRNS(pT)PG (SSRSRNSSRNS[pT]PG) [SCV2-N [187-200]-pT198, synthetic peptide modeled after SARS-CoV-2 nucleocapsid protein phosphorylation sites, pre-phosphorylated at T198] | – | – | – | – | – | – | 157 | 23,031 ± 486 | 1042 | 7032 ± 319 | 553 | Relative Phosphorylation to Autophosphorylation Control (set at 100), CK1d [11]: 152; Relative Phosphorylation to Autophosphorylation Control (set at 100), CDK2 + Cyclin A2 [12]: 101; Relative Phosphorylation to Autophosphorylation Control (set at 100), CK2a1 [15]: 102; Relative Phosphorylation to Autophosphorylation Control (set at 100), ERK1 [13]: 100; Relative Phosphorylation to Autophosphorylation Control (set at 100), CK1a1 [16]: 250 |
| SSRSRNSSRNSTPG [SCV2-N [187-200], synthetic peptide modeled after SARS-CoV-2 nucleocapsid protein phosphorylation sites] | – | – | – | – | – | – | 485 | 2573 ± 49 | 108 | 12,687 ± 486 | 1080 | Relative Phosphorylation to Autophosphorylation Control (set at 100), CK1d [11]: 100; Relative Phosphorylation to No Kinase Control, PKCa + GSK3b [10]: 3692 ± 61; Relative Phosphorylation to Autophosphorylation Control (set at 100), CDK2 + Cyclin A2 [12]: 100; Relative Phosphorylation to Autophosphorylation Control (set at 100), CK2a1 [15]: 103; Relative Phosphorylation to Autophosphorylation Control (set at 100), ERK1 [13]: 100; Relative Phosphorylation to Autophosphorylation Control (set at 100), CK1a1 [16]: 145 |

— patent US20250042887A1, “GLYCOGEN SYNTHASE KINASE-3 (GSK3) INHIBITOR COMPOUNDS FOR USE AS ANTIVIRAL AGENTS” (priority 2021, published 2025)
